Data: patent US8415469B2, “Compounds and methods for kinase modulation, and indications therefor” (Plexxikon Inc., priority 2005, dated 2013)

Key:
Type in all cases: biochemical
B-Raf = target: T1, B-Raf (Homo sapiens, UniProt P15056); assay: AlphaScreen kinase assay, B-Raf; details: read-out: IC50, activity toward kinase B-Raf
T1 construct: purchased Upstate Biotechnology

B-Raf V600E = target: T2, B-Raf V600E (Homo sapiens, UniProt P15056, V600E); assay: AlphaScreen kinase assay, B-Raf V600E; details: read-out: IC50, activity toward kinase B-Raf V600E
T2 construct: P4254. pFastBacBD-CDC37 BRAF D437-K722-X, V600E; His6 with pFastBac HT leader (TEV site) (N); made in house; host or cells: Sf9 (baculovirus; chaperone CDC37 co-expressed)
T2 sequence (P15056 with tags, fused parts or gaps V600E): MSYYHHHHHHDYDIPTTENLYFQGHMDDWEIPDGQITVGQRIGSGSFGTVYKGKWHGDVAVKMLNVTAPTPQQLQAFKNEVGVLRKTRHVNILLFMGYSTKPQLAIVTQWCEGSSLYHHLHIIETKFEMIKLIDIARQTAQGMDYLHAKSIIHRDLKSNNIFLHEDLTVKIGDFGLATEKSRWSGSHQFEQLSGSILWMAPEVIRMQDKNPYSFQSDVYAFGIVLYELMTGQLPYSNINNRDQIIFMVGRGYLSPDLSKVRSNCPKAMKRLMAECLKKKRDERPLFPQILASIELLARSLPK

c-Raf-1 = target: T3, c-Raf-1 (Homo sapiens, UniProt P04049); assay: AlphaScreen kinase assay, c-Raf-1; details: read-out: IC50, activity toward kinase c-Raf-1
T3 construct: purchased Upstate Biotechnology
T3 sequence (P04049 whole entry): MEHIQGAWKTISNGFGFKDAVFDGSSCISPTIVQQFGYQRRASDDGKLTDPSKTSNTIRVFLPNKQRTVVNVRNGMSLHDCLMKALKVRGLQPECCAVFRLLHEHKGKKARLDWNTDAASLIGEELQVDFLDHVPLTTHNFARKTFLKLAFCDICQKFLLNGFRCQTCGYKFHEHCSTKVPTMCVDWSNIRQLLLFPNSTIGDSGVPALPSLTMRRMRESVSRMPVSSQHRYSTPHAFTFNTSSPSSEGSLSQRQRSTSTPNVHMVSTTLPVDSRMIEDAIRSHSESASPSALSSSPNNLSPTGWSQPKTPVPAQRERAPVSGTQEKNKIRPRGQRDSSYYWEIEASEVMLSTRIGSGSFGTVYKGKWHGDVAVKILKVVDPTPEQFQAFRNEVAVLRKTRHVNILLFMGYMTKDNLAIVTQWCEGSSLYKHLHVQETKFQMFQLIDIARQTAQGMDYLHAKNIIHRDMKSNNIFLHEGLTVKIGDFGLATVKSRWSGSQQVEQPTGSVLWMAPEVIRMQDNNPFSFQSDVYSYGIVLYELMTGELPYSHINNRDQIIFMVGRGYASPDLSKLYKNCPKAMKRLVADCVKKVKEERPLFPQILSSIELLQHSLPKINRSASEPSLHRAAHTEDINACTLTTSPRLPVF

FGFR1 = target: T4, FGFR1 (Homo sapiens, UniProt P11362, C488A/C584S); assay: AlphaScreen kinase assay, FGFR1; details: read-out: IC50, activity toward kinase FGFR
T4 construct: P1351.pET N6 BI-PTP FGFR A458-E765-X C488A, C584S; made in house; host or cells: E. coli (PTP1B co-expressed)
T4 sequence (P11362 458-765 C488A/C584S): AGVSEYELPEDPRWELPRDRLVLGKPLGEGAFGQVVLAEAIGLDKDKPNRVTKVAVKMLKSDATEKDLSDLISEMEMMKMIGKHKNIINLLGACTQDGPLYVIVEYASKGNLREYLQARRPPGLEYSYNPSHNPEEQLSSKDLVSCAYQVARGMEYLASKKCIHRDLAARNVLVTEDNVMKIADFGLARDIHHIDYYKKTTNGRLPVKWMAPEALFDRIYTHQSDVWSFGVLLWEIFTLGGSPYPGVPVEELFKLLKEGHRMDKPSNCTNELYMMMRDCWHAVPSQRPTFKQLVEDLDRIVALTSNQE

Flt1 = target: T5, Flt1 (Homo sapiens, UniProt P17948); assay: AlphaScreen kinase assay, Flt1; details: read-out: IC50, activity toward kinase Flt1
T5 construct: P1826.pETN6 BI-PTP FLT1 M799-D1165-X WT; His6 (N); made in house; host or cells: E. coli (PTP1B co-expressed)
T5 sequence (P17948 with tags, fused parts or gaps): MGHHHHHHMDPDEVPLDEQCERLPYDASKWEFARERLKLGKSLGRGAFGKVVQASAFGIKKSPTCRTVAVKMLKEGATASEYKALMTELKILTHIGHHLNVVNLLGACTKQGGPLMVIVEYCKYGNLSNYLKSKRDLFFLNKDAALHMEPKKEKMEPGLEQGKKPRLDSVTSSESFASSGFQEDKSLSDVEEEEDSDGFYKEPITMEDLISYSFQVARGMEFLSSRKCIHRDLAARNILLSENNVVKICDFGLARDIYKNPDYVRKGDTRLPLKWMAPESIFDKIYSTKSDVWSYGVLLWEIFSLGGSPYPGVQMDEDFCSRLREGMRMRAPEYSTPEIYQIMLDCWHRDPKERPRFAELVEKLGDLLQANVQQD

Fms = target: T6, Fms (Homo sapiens, UniProt P07333); assay: AlphaScreen kinase assay, Fms; details: read-out: IC50, activity toward kinase Fms
T6 construct: purchased Upstate Biotechnology

Jnk1 = target: T7, Jnk1 (Homo sapiens, UniProt P45983); assay: AlphaScreen kinase assay, Jnk1; details: read-out: IC50, activity toward kinase Jnk1
T7 construct: purchased Upstate Biotechnology
T7 sequence (P45983 whole entry): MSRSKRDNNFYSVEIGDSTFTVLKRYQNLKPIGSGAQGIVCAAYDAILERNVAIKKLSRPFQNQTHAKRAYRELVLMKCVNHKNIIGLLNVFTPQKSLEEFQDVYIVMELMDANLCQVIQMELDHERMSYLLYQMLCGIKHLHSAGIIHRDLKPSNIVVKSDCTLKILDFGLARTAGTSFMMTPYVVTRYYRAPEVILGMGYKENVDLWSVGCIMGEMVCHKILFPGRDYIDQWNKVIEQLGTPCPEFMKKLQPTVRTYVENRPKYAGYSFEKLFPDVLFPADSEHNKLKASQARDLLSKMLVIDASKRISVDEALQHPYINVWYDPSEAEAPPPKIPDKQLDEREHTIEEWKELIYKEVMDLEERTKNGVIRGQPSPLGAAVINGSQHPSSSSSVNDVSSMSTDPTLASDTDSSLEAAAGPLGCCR

Jnk2 = target: T8, Jnk2 (Homo sapiens, UniProt P45984); assay: AlphaScreen kinase assay, Jnk2; details: read-out: IC50, activity toward kinase Jnk2
T8 construct: purchased Roche Protein Expression Group (Indianapolis, IN)
Procedure, shortened: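 Here, phosphorylation of a biotin-tagged peptide was sensed by proximity of streptavidin donor and antibody-bearing acceptor beads. Test compounds covered 8 concentrations by 1:3 serial dilution of 20 mM DMSO stocks.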

Jnk3 = target: T9, Jnk3 (Homo sapiens, UniProt P53779); assay: AlphaScreen kinase assay, Jnk3; details: read-out: IC50, activity toward kinase Jnk3
T9 construct: purchased Upstate Biotechnology
T9 sequence (P53779 whole entry): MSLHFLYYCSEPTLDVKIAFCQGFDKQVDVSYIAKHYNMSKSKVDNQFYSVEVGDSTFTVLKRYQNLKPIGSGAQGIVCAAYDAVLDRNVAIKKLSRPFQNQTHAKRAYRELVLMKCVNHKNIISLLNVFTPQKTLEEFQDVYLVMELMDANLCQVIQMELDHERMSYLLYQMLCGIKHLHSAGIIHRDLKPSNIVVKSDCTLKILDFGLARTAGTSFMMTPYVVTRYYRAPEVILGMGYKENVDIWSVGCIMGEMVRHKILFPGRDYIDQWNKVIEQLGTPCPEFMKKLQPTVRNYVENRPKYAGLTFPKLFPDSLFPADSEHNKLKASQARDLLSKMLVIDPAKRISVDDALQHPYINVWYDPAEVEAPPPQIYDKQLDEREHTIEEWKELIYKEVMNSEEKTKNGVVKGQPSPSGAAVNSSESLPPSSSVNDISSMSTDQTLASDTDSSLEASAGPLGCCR

Kdr = target: T10, Kdr (Homo sapiens, UniProt P35968); assay: Z'-Lyte FRET kinase assay (Invitrogen), Kdr; details: read-out: IC50, activity toward kinase Kdr
T10 construct: purchased Invitrogen (assay run by Invitrogen)
T10 sequence (P35968 20-1356): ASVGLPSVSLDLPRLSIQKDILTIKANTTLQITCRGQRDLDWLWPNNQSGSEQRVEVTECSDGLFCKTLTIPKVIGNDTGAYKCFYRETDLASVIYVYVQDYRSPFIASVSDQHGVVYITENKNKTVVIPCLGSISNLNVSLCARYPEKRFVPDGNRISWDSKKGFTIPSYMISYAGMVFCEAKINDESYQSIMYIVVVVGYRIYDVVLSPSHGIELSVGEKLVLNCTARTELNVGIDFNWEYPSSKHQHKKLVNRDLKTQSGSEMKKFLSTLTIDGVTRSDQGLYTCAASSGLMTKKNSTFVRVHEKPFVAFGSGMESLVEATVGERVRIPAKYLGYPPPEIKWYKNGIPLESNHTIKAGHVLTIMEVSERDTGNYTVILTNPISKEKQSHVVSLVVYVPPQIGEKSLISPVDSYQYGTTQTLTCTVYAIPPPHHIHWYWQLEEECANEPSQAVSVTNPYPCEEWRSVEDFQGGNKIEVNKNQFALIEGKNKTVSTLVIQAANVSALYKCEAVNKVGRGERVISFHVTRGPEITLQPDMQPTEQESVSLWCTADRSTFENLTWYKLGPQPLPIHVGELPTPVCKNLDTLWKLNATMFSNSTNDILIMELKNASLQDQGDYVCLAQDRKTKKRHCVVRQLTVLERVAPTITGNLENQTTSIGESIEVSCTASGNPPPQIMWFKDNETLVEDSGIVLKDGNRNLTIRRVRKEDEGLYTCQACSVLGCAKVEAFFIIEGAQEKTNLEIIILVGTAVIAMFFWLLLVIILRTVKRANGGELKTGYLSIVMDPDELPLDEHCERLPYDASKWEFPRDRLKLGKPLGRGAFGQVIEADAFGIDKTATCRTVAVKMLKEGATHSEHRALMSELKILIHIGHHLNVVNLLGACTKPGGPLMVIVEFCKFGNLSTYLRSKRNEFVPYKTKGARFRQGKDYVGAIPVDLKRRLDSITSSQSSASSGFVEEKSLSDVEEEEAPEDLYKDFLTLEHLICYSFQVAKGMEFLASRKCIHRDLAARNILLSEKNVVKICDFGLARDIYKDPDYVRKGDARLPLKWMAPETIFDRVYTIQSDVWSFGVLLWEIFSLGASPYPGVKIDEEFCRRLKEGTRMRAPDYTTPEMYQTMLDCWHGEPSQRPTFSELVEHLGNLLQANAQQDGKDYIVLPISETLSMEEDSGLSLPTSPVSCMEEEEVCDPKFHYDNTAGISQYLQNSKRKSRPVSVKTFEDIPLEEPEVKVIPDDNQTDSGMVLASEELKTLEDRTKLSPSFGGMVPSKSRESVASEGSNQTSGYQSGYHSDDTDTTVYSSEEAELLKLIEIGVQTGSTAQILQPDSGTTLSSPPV

Kit = target: T11, Kit (Homo sapiens, UniProt P10721); assay: AlphaScreen kinase assay, Kit; details: read-out: IC50, activity toward kinase Kit
T11 construct: P1332.N6 BI PTP KIT M552-K948-X COD; His6 (N); made in house; host or cells: E. coli (PTP1B co-expressed)
T11 sequence (P10721 with tags, fused parts or gaps): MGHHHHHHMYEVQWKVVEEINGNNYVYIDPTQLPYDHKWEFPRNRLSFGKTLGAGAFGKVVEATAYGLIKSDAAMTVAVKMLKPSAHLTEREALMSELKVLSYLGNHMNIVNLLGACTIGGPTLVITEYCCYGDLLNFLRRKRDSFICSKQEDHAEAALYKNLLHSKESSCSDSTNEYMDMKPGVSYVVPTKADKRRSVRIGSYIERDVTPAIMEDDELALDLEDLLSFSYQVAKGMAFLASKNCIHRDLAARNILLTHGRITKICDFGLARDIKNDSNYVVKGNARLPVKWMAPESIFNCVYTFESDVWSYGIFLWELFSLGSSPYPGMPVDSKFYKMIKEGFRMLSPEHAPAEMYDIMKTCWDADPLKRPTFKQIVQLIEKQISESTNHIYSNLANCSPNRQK

Met = target: T12, Met (Homo sapiens, UniProt P08581); assay: AlphaScreen kinase assay, Met; details: read-out: IC50, activity toward kinase Met
T12 construct: P1818.pETN6 BI-PTP MET G1056-G1364-X WT; His6 (N); made in house; host or cells: E. coli (PTP1B co-expressed)
T12 sequence (P08581 with tags, fused parts or gaps): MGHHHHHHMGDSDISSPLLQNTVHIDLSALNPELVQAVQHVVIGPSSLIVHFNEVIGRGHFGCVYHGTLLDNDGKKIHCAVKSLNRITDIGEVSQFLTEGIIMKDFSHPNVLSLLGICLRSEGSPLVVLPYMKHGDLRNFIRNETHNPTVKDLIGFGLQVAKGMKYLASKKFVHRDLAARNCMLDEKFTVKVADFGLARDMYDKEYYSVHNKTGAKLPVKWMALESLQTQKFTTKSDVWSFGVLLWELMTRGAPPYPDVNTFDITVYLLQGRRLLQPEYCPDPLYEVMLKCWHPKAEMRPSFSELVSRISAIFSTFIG
Source text: AlphaScreen assay was used to screen additional kinases. The assay is similarly dependent on the phosphorylation of a peptide substrate. In this assay, an antibody that recognizes phosphorylated substrate is bound to an acceptor bead. The peptide substrate is attached to biotin, which binds to a donor head that contains streptavidin. Thus phosphorylated substrate is bound by antibody and streptavidin, bringing the donor and acceptor heads into close proximity when kinase is not inhibited. The donor produces singlet oxygen which results in emission from the acceptor when they are in close proximity. Conversely, when kinase is inhibited, the donor and acceptor beads are not associated and the emission from the acceptor is reduced.
AlphaScreen assays were done using compounds dissolved in DMSO to a concentration of 20 mM. The compounds were diluted accordingly to the desired final concentrations in each sample well, using 1:3 serial dilution for a total of 8 concentration points.

Ret = target: T13, Ret (Homo sapiens, UniProt P07949); assay: AlphaScreen kinase assay, Ret; details: read-out: IC50, activity toward kinase Ret
T13 construct: P1378.pET-SF BI-PTP RET H661-R1012 HIS; made in house
T13 sequence (P07949 with tags, fused parts or gaps): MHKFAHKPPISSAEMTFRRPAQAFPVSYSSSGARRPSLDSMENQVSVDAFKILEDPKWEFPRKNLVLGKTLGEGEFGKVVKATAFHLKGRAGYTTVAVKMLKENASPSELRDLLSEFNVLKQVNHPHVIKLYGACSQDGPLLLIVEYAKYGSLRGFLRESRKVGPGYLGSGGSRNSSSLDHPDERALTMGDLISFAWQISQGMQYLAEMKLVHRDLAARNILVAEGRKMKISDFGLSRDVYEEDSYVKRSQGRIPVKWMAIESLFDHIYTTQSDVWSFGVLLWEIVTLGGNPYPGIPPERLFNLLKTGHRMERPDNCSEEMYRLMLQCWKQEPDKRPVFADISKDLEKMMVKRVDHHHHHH

Fak = target: T14, Fak (Homo sapiens, UniProt Q05397); assay: AlphaScreen kinase assay, Fak; details: read-out: IC50, activity toward kinase Fak
T14 construct: P1358.pFastBacHtb FAK S411-Q686-X; His6 with pFastBacHTb leader (TEV site) (N); made in house; host or cells: Sf9 (baculovirus)

Stk6 = target: T15, Stk6 (Homo sapiens, UniProt O14965); assay: Z'-Lyte FRET kinase assay (Invitrogen), Stk6; details: read-out: IC50, activity toward kinase Stk6
T15 construct: purchased Invitrogen (Carlsbad, Calif.), screening service
T15 sequence (O14965 1-403): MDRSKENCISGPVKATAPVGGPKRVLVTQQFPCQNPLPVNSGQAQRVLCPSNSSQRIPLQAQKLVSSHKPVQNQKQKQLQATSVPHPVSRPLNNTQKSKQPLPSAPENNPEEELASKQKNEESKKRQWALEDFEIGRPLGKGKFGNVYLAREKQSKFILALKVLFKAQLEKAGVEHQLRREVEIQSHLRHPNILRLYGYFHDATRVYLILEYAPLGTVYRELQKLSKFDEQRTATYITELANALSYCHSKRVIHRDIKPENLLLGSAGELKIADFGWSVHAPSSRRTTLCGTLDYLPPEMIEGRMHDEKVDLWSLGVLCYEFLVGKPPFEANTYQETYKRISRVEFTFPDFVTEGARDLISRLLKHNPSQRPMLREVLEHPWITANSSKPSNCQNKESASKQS

Src = target: T16, Src (Homo sapiens, UniProt P12931); assay: AlphaScreen kinase assay, Src; details: read-out: IC50, activity toward kinase Src
T16 construct: P1144. pET-N6 BI-PTP SRC V86-L536-X; made in house

T1 sequence (P15056 whole entry): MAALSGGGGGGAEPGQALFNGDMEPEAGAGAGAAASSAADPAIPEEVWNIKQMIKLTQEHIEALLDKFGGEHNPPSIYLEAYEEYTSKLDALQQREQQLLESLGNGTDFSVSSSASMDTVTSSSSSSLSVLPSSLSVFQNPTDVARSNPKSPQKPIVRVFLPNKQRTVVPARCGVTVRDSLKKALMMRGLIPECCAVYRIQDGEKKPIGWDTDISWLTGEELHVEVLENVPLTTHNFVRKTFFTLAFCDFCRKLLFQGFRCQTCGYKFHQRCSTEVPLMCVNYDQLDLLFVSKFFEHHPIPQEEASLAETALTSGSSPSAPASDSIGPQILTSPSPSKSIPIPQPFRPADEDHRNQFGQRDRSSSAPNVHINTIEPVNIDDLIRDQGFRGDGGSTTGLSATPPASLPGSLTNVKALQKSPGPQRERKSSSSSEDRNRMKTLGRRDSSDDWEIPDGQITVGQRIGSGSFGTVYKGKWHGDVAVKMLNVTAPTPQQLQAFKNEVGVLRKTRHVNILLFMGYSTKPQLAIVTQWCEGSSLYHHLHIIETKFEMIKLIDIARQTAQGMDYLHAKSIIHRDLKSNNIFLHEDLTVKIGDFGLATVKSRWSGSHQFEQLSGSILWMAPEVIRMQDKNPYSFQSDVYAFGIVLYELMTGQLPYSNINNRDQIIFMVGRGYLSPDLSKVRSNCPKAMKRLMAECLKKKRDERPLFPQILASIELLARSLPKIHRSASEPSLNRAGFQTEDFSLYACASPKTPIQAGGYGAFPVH

| IC50 (B-Raf) [µM] | IC50 (B-Raf V600E) [µM] | IC50 (c-Raf-1) [µM] | IC50 (FGFR1) [µM] | IC50 (Flt1) [µM] | IC50 (Fms) [µM] | IC50 (Jnk1) [µM] | IC50 (Jnk2) [µM] | IC50 (Jnk3) [µM] | IC50 (Kdr) [µM] | IC50 (Kit) [µM] | IC50 (Met) [µM] | IC50 (Ret) [µM] | IC50 (Fak) [µM] | IC50 (Stk6) [µM] | IC50 (Src) [µM] | Compound |
| --- | --- | --- | --- | --- | --- | --- | --- | --- | --- | --- | --- | --- | --- | --- | --- | --- |
| ≤ 10 | ≤ 10 | ≤ 10 | ≤ 10 | ≤ 10 | ≤ 10 | ≤ 10 | ≤ 10 | ≤ 10 | ≤ 10 | ≤ 10 | ≤ 10 | ≤ 10 | – | – | – | CS(=O)(=O)Nc1ccc(F)c(C(=O)c2c[nH]c3ncc(-c4ccccc4)cc23)c1F [Compound P-0184, N-[2,4-Difluoro-3-(5-phenyl-1H-pyrrolo[2,3-b]pyridine-3-carbonyl)-phenyl]-methanesulfonamide] |
| – | – | – | – | – | – | – | – | – | – | – | ≤ 10 | – | ≤ 10 | – | – | CCOc1ccccc1-c1ccnc2[nH]ccc12 [Compound P-1114] |
| – | – | – | – | – | – | – | – | ≤ 10 | – | – | ≤ 10 | ≤ 10 | – | – | – | Oc1ncc(F)c(Cc2c[nH]c3ncc(-c4ccsc4)cc23)c1F [Compound P-0822] |
| ≤ 10 | ≤ 10 | ≤ 10 | ≤ 10 | ≤ 10 | ≤ 10 | – | – | – | – | ≤ 10 | ≤ 10 | – | – | – | – | CCCS(=O)(=O)Nc1ccc(F)c(C(=O)c2c[nH]c3ncc(Br)cc23)c1F [Compound P-0773, propane-1-sulfonic acid [3-(5-bromo-1H-pyrrolo[2,3-b]pyridine-3-carbonyl)-2,4-difluoro-phenyl]-amide] |

Second part, the molecule before the results:

| Compound | IC50 (B-Raf) [µM] | IC50 (B-Raf V600E) [µM] | IC50 (c-Raf-1) [µM] | IC50 (FGFR1) [µM] | IC50 (Flt1) [µM] | IC50 (Fms) [µM] | IC50 (Jnk1) [µM] | IC50 (Jnk2) [µM] | IC50 (Jnk3) [µM] | IC50 (Kdr) [µM] | IC50 (Kit) [µM] | IC50 (Met) [µM] | IC50 (Ret) [µM] | IC50 (Fak) [µM] | IC50 (Stk6) [µM] | IC50 (Src) [µM] |
| --- | --- | --- | --- | --- | --- | --- | --- | --- | --- | --- | --- | --- | --- | --- | --- | --- |
| CC(=O)c1cccc(Nc2cnc3[nH]ccc3c2)c1 [Compound P-1008] | – | ≤ 10 | – | ≤ 10 | ≤ 10 | ≤ 10 | ≤ 10 | – | ≤ 10 | – | ≤ 10 | ≤ 10 | – | – | – | – |
| Fc1ccc(-c2ccnc3[nH]cc(Sc4cccs4)c23)cc1 [Compound P-0419] | – | – | – | – | – | – | – | – | – | – | – | ≤ 10 | – | – | ≤ 10 | – |
| COC(=O)COc1ccc(F)c(Cc2c[nH]c3ncc(-c4cccnc4)cc23)c1F [Compound P-1465, [2,4-Difluoro-3-(5-pyridin-3-yl-1H-pyrrolo[2,3-b]pyridin-3-ylmethyl)-phenoxy]-acetic acid methyl ester] | – | ≤ 10 | – | ≤ 10 | ≤ 10 | ≤ 10 | ≤ 10 | – | ≤ 10 | – | ≤ 10 | ≤ 10 | – | – | – | – |
| O=C(c1c(F)ccc(O)c1F)c1c[nH]c2ncc(-c3cccnc3)cc12 [Compound P-0066, (2,6-Difluoro-3-hydroxy-phenyl)-(5-pyridin-3-yl-1H-pyrrolo[2,3-b]pyridin-3-yl)-methanone] | ≤ 10 | ≤ 10 | ≤ 10 | ≤ 10 | – | – | ≤ 10 | ≤ 10 | ≤ 10 | – | – | ≤ 10 | ≤ 10 | – | – | – |
| O=C(Nc1ccccc1)Nc1ccc(Cc2c[nH]c3ncccc23)cc1 [Compound P-0542] | – | – | ≤ 10 | – | – | – | – | – | – | – | – | ≤ 10 | ≤ 10 | – | – | – |
| O=C(c1cccc(Cl)c1F)c1c[nH]c2ncc(-c3cccnc3)cc12 [Compound P-0165, (3-Chloro-2-fluoro-phenyl)-(5-pyridin-3-yl-1H-pyrrolo[2,3-b]pyridin-3-yl)-methanone] | ≤ 10 | ≤ 10 | ≤ 10 | ≤ 10 | – | – | – | – | ≤ 10 | ≤ 10 | – | ≤ 10 | ≤ 10 | – | – | – |
| CS(=O)(=O)Nc1ccc(F)c(C(=O)c2c[nH]c3ncc(-c4cccc(C(N)=O)c4)cc23)c1F [Compound P-0721, 3-[3-(2,6-Difluoro-3-methanesulfonylamino-benzoyl)-1H-pyrrolo[2,3-b]pyridin-5-yl]-benzamide] | ≤ 10 | ≤ 10 | ≤ 10 | ≤ 10 | ≤ 10 | ≤ 10 | ≤ 10 | ≤ 10 | – | – | ≤ 10 | ≤ 10 | ≤ 10 | ≤ 10 | – | ≤ 10 |
| CC(C)(C)c1ccc(Nc2cnc3[nH]ccc3c2)cc1 [Compound P-1023] | – | – | – | – | – | – | – | – | – | ≤ 10 | – | ≤ 10 | – | – | – | – |
| CS(=O)(=O)Nc1cccc(-c2cnc3[nH]cc(C(=O)c4c(F)ccc(OC(F)F)c4F)c3c2)c1 [Compound P-1527, N-{3-[3-(3-Difluoromethoxy-2,6-difluoro-benzoyl)-1H-pyrrolo[2,3-b]pyridin-5-yl]-phenyl}-methanesulfonamide] | ≤ 10 | ≤ 10 | – | ≤ 10 | ≤ 10 | ≤ 10 | – | – | – | – | ≤ 10 | ≤ 10 | – | – | – | ≤ 10 |
